Patent publication US20040010001A1, “Methods and compositions for modulating cell proliferation and cell death” (priority 1999, published 2004)
Like-named read-outs stand apart in the source and are kept apart here.

Tests used:
[1] = tested on: Human prostate PC3 tumor cells; test: aFGF/bFGF-induced resistance and reversal by suramin, sulforhodamine B assay; assay type: cell-based; settings: for Resistance, Folds, aFGF 0.3 ng/ml + bFGF 1 ng/ml / Resistance, Folds, aFGF 1 ng/ml + bFGF 3 ng/ml: no suramin, relative to control
Procedure: The experimental conditions are described briefly below. […] Cell number was measured using the sulforhodamine B assay which measures the total protein concentration. […] The FGF-induced resistance was dependent on the FGF concentrations, with a higher resistance at higher FGF concentrations.

[2] = tested on: Human prostate PC3 tumor cells; test: Drug treatment and extracellular bFGF (ELISA), LDH release, cell number; assay type: cell-based; settings: for Extracellular LDH, % of control / Extracellular bFGF, % of control / Extracellular concentration bFGF / bFGF:LDH ratio: 72 hours
Procedure: The experimental conditions are described briefly below. […] The remaining cell number at the end of treatment was counted using a Coulter counter. The extracellular bFGF concentration was measured using ELISA. The release of lactate dehydrogenase (LDH) into the extracellular culture medium is indicative of cell death and gives a measure of the release of cellular content into the culture medium. If the increase in extracellular bFGF level is due to the release of bFGF upon cell death and lysis, the increase in bFGF will be accompanied by an increase in LDH in the same extent. This would result in an higher bFGF level and a constant bFGF-to-LDH ratio. On the other hand, an increase in extracellular bFGF due to an increase in bFGF production and release of bFGF from cells by processes other than cell lysis will result in an higher bFGF level and an higher bFGF-to-LDH ratio.

[3] = Homo sapiens, read-out: IC50, Control (drug treatment only, without FGF treatment), No suramin, drug 96 hours
[4] = Homo sapiens, read-out: IC50, aFGF 0.3 ng/ml + bFGF 1 ng/ml, No suramin, FGF pretreatment 96 hours, drug 96 hours
[5] = Homo sapiens, read-out: IC50, aFGF 1 ng/ml + bFGF 3 ng/ml, No suramin, FGF pretreatment 96 hours, drug 96 hours
[6] = read-out: IC50, Control (without FGF treatment), Suramin, 15 μM, drug 96 hours with 15 μM suramin
[7] = read-out: IC50, aFGF 0.3 ng/ml + bFGF 1 ng/ml, With suramin, FGF pretreatment 96 hours, drug 96 hours with 15 micromolar suramin
[8] = read-out: IC50, aFGF 1 ng/ml + bFGF 3 ng/ml, With suramin, FGF pretreatment 96 hours, drug 96 hours with 15 micromolar suramin

Molecule `CC[C@@]1(O)C(=O)OCc2c1cc1n(c2=O)Cc2cc3ccccc3nc2-1` [Camptothecin] has an IC50 [1, 3] of 5.03 nM, an IC50 [1, 4] of 11.4 nM and an IC50 [1, 5] of 17.2 nM. For the same molecule, the “Resistance, Folds, aFGF 0.3 ng/ml + bFGF 1 ng/ml” value [1] was 2.26 Folds, the “Resistance, Folds, aFGF 1 ng/ml + bFGF 3 ng/ml” value [1] was 3.42 Folds and the IC50 [1, 6] was 4.8 nM. For the same molecule, the IC50 [1, 7] was 5.4 nM, the IC50 [1, 8] was 5.78 nM and the “Remaining cell number at 72 hours (% of control)” value ([2]; drug concentration 2 NM) was 83%. For the same molecule, the “Remaining cell number at 72 hours × 10^6” value ([2]; drug concentration 2 NM) was 2.0 × 10^6, the “Extracellular LDH, % of control” value ([2]; drug concentration 2 NM) was 137 % of control and the “Extracellular bFGF, % of control” value ([2]; drug concentration 2 NM) was 145 % of control. For the same molecule, the “Extracellular concentration bFGF” value ([2]; drug concentration 2 NM) was 9.08 pg/mL, the “bFGF:LDH ratio” value ([2]; drug concentration 2 NM) was 1.06 and the “Remaining cell number at 72 hours (% of control)” value ([2]; drug concentration 6 NM) was 50%. The “Remaining cell number at 72 hours × 10^6” value ([2]; drug concentration 6 NM) was 1.2 × 10^6, the “Extracellular LDH, % of control” value ([2]; drug concentration 6 NM) was 182 % of control and the “Extracellular bFGF, % of control” value ([2]; drug concentration 6 NM) was 221 % of control. The “Extracellular concentration bFGF” value ([2]; drug concentration 6 NM) was 13.9 pg/mL, the “bFGF:LDH ratio” value ([2]; drug concentration 6 NM) was 1.22 and the “Remaining cell number at 72 hours (% of control)” value ([2]; drug concentration 20 NM) was 21%. For the same molecule, the “Remaining cell number at 72 hours × 10^6” value ([2]; drug concentration 20 NM) was 0.5 × 10^6, the “Extracellular LDH, % of control” value ([2]; drug concentration 20 NM) was 219 % of control and the “Extracellular bFGF, % of control” value ([2]; drug concentration 20 NM) was 279 % of control. The “Extracellular concentration bFGF” value ([2]; drug concentration 20 NM) was 17.5 pg/mL and the “bFGF:LDH ratio” value ([2]; drug concentration 20 NM) was 1.28.

`N.N.[Cl][Pt][Cl]` [Cisplatin] was tested, and the “Resistance, Folds, aFGF 0.3 ng/ml + bFGF 1 ng/ml” value [1] was 1.76 Folds, the “Resistance, Folds, aFGF 1 ng/ml + bFGF 3 ng/ml” value [1] was 3.69 Folds and the IC50 ([1]; read-out: IC50, Control (drug treatment only, without FGF treatment), No suramin, drug 96 hours) was 2760 nM. For the same molecule, the IC50 [1, 6] was 2690 nM, the IC50 ([1]; read-out: IC50, aFGF 0.3 ng/ml + bFGF 1 ng/ml, No suramin, FGF pretreatment 96 hours, drug 96 hours) was 4850 nM and the IC50 [1, 7] was 3090 nM. For the same molecule, the IC50 ([1]; read-out: IC50, aFGF 1 ng/ml + bFGF 3 ng/ml, No suramin, FGF pretreatment 96 hours, drug 96 hours) was 10200 nM, the IC50 [1, 8] was 3010 nM and the “Remaining cell number at 72 hours (% of control)” value ([2]; drug concentration 2000 NM) was 86%. The “Remaining cell number at 72 hours × 10^6” value ([2]; drug concentration 2000 NM) was 1.9 × 10^6, the “Extracellular LDH, % of control” value ([2]; drug concentration 2000 NM) was 169 % of control and the “Extracellular bFGF, % of control” value ([2]; drug concentration 2000 NM) was 267 % of control. The “Extracellular concentration bFGF” value ([2]; drug concentration 2000 NM) was 5.87 pg/mL, the “bFGF:LDH ratio” value ([2]; drug concentration 2000 NM) was 1.58 and the “Remaining cell number at 72 hours (% of control)” value ([2]; drug concentration 6000 NM) was 45%. For the same molecule, the “Remaining cell number at 72 hours × 10^6” value ([2]; drug concentration 6000 NM) was 1.0 × 10^6, the “Extracellular LDH, % of control” value ([2]; drug concentration 6000 NM) was 534 % of control and the “Extracellular bFGF, % of control” value ([2]; drug concentration 6000 NM) was 1561 % of control. For the same molecule, the “Extracellular concentration bFGF” value ([2]; drug concentration 6000 NM) was 95.9 pg/mL, the “bFGF:LDH ratio” value ([2]; drug concentration 6000 NM) was 2.92 and the “Remaining cell number at 72 hours (% of control)” value ([2]; drug concentration 20000 NM) was 18%. For the same molecule, the “Remaining cell number at 72 hours × 10^6” value ([2]; drug concentration 20000 NM) was 0.4 × 10^6, the “Extracellular LDH, % of control” value ([2]; drug concentration 20000 NM) was 563 % of control and the “Extracellular bFGF, % of control” value ([2]; drug concentration 20000 NM) was 1641 % of control. For the same molecule, the “Extracellular concentration bFGF” value ([2]; drug concentration 20000 NM) was 101 pg/mL and the “bFGF:LDH ratio” value ([2]; drug concentration 20000 NM) was 2.88.

For `CC[C@]1(O)C[C@@H]2CN(CCc3c([nH]c4ccccc34)[C@@](C(=O)OC)(c3cc4c(cc3OC)N(C)[C@H]3[C@@](O)(C(=O)OC)[C@H](OC(C)=O)[C@]5(CC)C=CCN6CC[C@]43[C@@H]65)C2)C1` [Vinblastine], the IC50 [1, 3] was 0.33 nM, the IC50 [1, 4] was 0.45 nM and the IC50 [1, 5] was 0.78 nM. For the same molecule, the “Resistance, Folds, aFGF 0.3 ng/ml + bFGF 1 ng/ml” value [1] was 1.36 Folds, the “Resistance, Folds, aFGF 1 ng/ml + bFGF 3 ng/ml” value [1] was 2.36 Folds and the IC50 [1, 6] was 0.4 nM. For the same molecule, the IC50 [1, 7] was 0.42 nM, the IC50 [1, 8] was 0.35 nM and the “Remaining cell number at 72 hours (% of control)” value ([2]; drug concentration 0.5 NM) was 74%. For the same molecule, the “Remaining cell number at 72 hours × 10^6” value ([2]; drug concentration 0.5 NM) was 1.7 × 10^6, the “Extracellular LDH, % of control” value ([2]; drug concentration 0.5 NM) was 263 % of control and the “Extracellular bFGF, % of control” value ([2]; drug concentration 0.5 NM) was 675 % of control. The “Extracellular concentration bFGF” value ([2]; drug concentration 0.5 NM) was 59.1 pg/mL, the “bFGF:LDH ratio” value ([2]; drug concentration 0.5 NM) was 2.57 and the “Remaining cell number at 72 hours (% of control)” value ([2]; drug concentration 1 NM) was 43%. The “Remaining cell number at 72 hours × 10^6” value ([2]; drug concentration 1 NM) was 1.0 × 10^6, the “Extracellular LDH, % of control” value ([2]; drug concentration 1 NM) was 326 % of control and the “Extracellular bFGF, % of control” value ([2]; drug concentration 1 NM) was 1073 % of control. The “Extracellular concentration bFGF” value ([2]; drug concentration 1 NM) was 94.0 pg/mL, the “bFGF:LDH ratio” value ([2]; drug concentration 1 NM) was 3.29 and the “Remaining cell number at 72 hours (% of control)” value ([2]; drug concentration 2 NM) was 17%. For the same molecule, the “Remaining cell number at 72 hours × 10^6” value ([2]; drug concentration 2 NM) was 0.4 × 10^6, the “Extracellular LDH, % of control” value ([2]; drug concentration 2 NM) was 513 % of control and the “Extracellular bFGF, % of control” value ([2]; drug concentration 2 NM) was 2046 % of control. The “Extracellular concentration bFGF” value ([2]; drug concentration 2 NM) was 179 pg/mL and the “bFGF:LDH ratio” value ([2]; drug concentration 2 NM) was 3.99.
